Format in all cases: cell-based
Common to all, as to settings: LB broth, 5×10^5 CFU/ml, 37° C., 18 hours, scored by eye

The test system of one experiment is E. coli 25922. Description: Minimum Inhibitory Concentration (MIC) determination, E. coli 25922. Details: unit not given here. As to the method: (§1) MICs were determined by performing two-fold serial dilutions of peptides in LB broth to a final volume of 0.1 ml in round-bottom 96-well assay plates (Corning Life Sciences No 3788). Peptides were initially resuspended in 100% DMSO to 10 mM and subsequently diluted in LB medium to the appropriate concentration. Each well was inoculated with 5×10^5 CFU/ml of the screening stain and incubated at 37° C. without agitation for 18 hours. Plates were scored by eye, and the lowest compound concentration preventing visible growth was determined to be the MIC.

A further experiment concerns E. coli BW25113. Kind of experiment: Minimum Inhibitory Concentration (MIC) determination, E. coli BW25113. Also noted: unit not given here. As to the method: as §1
The next experiment relates to E. coli 25922 IMP. Description: Minimum Inhibitory Concentration (MIC) determination, E. coli 25922 IMP. As to the method: as §1

Molecules are shown by their SMILES. Bridge positions count the residues as written; N and C are the ends. Square brackets hold non-standard residues; d marks the D form. Peptide text beside a SMILES is read from it. Phe(4-Cl) = N[C@@H](Cc1ccc(Cl)cc1)C(=O)O; 1Nal = N[C@@H](Cc1cccc2ccccc12)C(=O)O; His(π-Me) = Cn1cncc1C[C@H](N)C(=O)O; NMeF = CN[C@@H](Cc1ccccc1)C(=O)O; Aib = CC(C)(N)C(=O)O

As for `CC[C@@H]1NC(=O)[C@H](Cc2ccccc2)NC(=O)CSC[C@@H](C(=O)NCC(N)=O)NC(=O)[C@H](Cc2cncn2C)NC(=O)[C@H](CC)NC(=O)[C@H](Cc2c[nH]cn2)NC(=O)[C@H](Cc2ccc(O)cc2)N(C)C(=O)[C@H](CCCNC(=N)N)NC(=O)[C@H](CO)NC(=O)CNC(=O)[C@H](Cc2c[nH]cn2)NC(=O)[C@H](Cc2cccc3ccccc23)NC1=O` (stereo in doubt) [Compound 41], in the experiment on E. coli 25922, the “MIC E. coli 25922 WUXI::MIC” value is reported as over 100.

Turning to `CC[C@@H]1NC(=O)[C@H](Cc2ccccc2)N(C)C(=O)CSC[C@@H](C(=O)NCC(N)=O)NC(=O)[C@H](Cc2cncn2C)NC(=O)[C@H](CCC(N)=O)NC(=O)[C@H](Cc2c[nH]cn2)NC(=O)[C@H](Cc2ccc(O)cc2)N(C)C(=O)[C@H](CCCNC(=N)N)NC(=O)[C@H](CO)NC(=O)CNC(=O)[C@H](Cc2c[nH]cn2)NC(=O)[C@H](Cc2cccc3ccccc23)NC1=O` (racemic) [Compound 45], the “MIC E. coli 25922 WUXI::MIC” value with E. coli 25922 is over 100.

In the case of `CC[C@@H]1NC(=O)[C@H](Cc2ccccc2)NC(=O)CSC[C@@H](C(=O)NCC(N)=O)NC(=O)[C@H](Cc2cncn2C)NC(=O)[C@H](CCC(N)=O)NC(=O)[C@H](Cc2c[nH]cn2)NC(=O)[C@H](Cc2ccc(O)cc2)N(C)C(=O)[C@H](CCCNC(=N)N)NC(=O)[C@H](CO)NC(=O)CNC(=O)[C@H](Cc2c[nH]cn2)NC(=O)[C@H](Cc2cccc3ccccc23)NC1=O` (racemic) [Compound 42], in the experiment on E. coli 25922, the “MIC E. coli 25922 WUXI::MIC” value is 100.

For the compound `CC[C@@H]1NC(=O)[C@H](Cc2ccccc2)N(C)C(=O)CSC[C@@H](C(=O)NCC(N)=O)NC(=O)[C@H](Cc2cncn2C)NC(=O)[C@H](CN)NC(=O)[C@H](Cc2c[nH]cn2)NC(=O)[C@H](Cc2ccc(O)cc2)N(C)C(=O)[C@H](CCCNC(=N)N)NC(=O)[C@H](CO)NC(=O)CNC(=O)[C@H](Cc2c[nH]cn2)NC(=O)[C@H](Cc2cccc3ccccc23)NC1=O` (racemic) [Compound 48], the “MIC E. coli 25922 WUXI::MIC” value in the experiment on E. coli 25922 is over 100.

As to `CC(C)[C@@H]1NC(=O)[C@H](Cc2ccccc2)NC(=O)CSC[C@@H](C(=O)NCC(N)=O)NC(=O)[C@H](Cc2cncn2C)NC(=O)[C@H](CCCNC(=N)N)NC(=O)[C@H](Cc2cnc[nH]2)NC(=O)[C@H](Cc2ccccc2)N(C)C(=O)[C@H](CCCNC(=N)N)NC(=O)[C@H](CO)NC(=O)CNC(=O)[C@H](Cc2c[nH]cn2)NC(=O)[C@H](Cc2cccc3ccccc23)NC1=O` [Compound 6, (3R,6S,9S,12S,15S,18S,21S,27S,30S, 33S,36S)-N-(2-amino-2-oxo-ethyl)-15,36-dibenzyl-9,18-bis(3-guanidinopropyl)-21-(hydroxymethyl)-12,27-bis(1H-imidazol-4-ylmethyl)-33-isopropyl-16-methyl-6-[(3-methylimidazol-4-yl)methyl]-30-(1-naphthylmethyl)-5,8,11,14,17,20,23,26,29,32,35,38-dodecaoxo-1-thia-4,7,10,13,16,19,22,25,28,31,34,37-dodecazacyclononatriacontane-3-carboxamide] ({CH2CO}-FV[1Nal]HGSR[NMeF]HR[His(π-Me)]CG-NH2; thioether N-12), in the experiment with E. coli BW25113, the “MIC E. coli BW25113 WUXI::MIC” value is recorded as 2. Moreover, the “MIC E. coli 25922 IMP WUXI::MIC” value against E. coli 25922 IMP was under 0.000125.

`CC[C@H](C)[C@@H]1NC(=O)[C@H]([C@@H](C)O)NC(=O)[C@H](Cc2cncn2C)NC(=O)[C@H](Cc2ccccc2)NC(=O)CSC[C@@H](C(=O)NCC(N)=O)NC(=O)[C@H](Cc2ccc(O)cc2)NC(=O)[C@H](Cc2c[nH]c3ccccc23)NC(=O)[C@H](Cc2ccc(O)cc2)NC(=O)[C@H](Cc2cncn2C)NC(=O)[C@H](Cc2ccccc2)NC(=O)C(C)(C)NC(=O)[C@H](CCCNC(=N)N)NC(=O)[C@H](CCCNC(=N)N)NC(=O)[C@H](CCCNC(=N)N)NC1=O` [Compound 53] ({CH2CO}-F[His(π-Me)]TIRRR[Aib]F[His(π-Me)]YWYCG-NH2; thioether N-14): the “MIC E. coli BW25113 WUXI::MIC” value against E. coli BW25113 is given as 4. In addition, the “MIC E. coli 25922 IMP WUXI::MIC” value with E. coli 25922 IMP was found to be 0.25.

In the case of `CC[C@H](C)[C@@H]1NC(=O)C(C)(C)NC(=O)[C@H](Cc2cncn2C)NC(=O)[C@H](Cc2ccccc2)NC(=O)CSC[C@@H](C(=O)NCC(N)=O)NC(=O)[C@H](Cc2ccc(O)cc2)NC(=O)[C@H](Cc2c[nH]c3ccccc23)NC(=O)[C@H](Cc2ccc(O)cc2)NC(=O)[C@H](Cc2cncn2C)NC(=O)[C@H](Cc2ccccc2)NC(=O)C(C)(C)NC(=O)[C@H](CCCNC(=N)N)NC(=O)[C@H](CCCCN)NC(=O)[C@H](CCCNC(=N)N)NC1=O` [Compound 56] ({CH2CO}-F[His(π-Me)][Aib]IRKR[Aib]F[His(π-Me)]YWYCG-NH2; thioether N-14), in the experiment with E. coli BW25113, the “MIC E. coli BW25113 WUXI::MIC” value was over 32. The “MIC E. coli 25922 IMP WUXI::MIC” value against E. coli 25922 IMP turned out to be 8.

As to `CC[C@H](C)[C@@H]1NC(=O)[C@H]([C@@H](C)O)NC(=O)[C@H](Cc2cncn2C)NC(=O)[C@H](Cc2ccccc2)NC(=O)CSC[C@@H](C(=O)NCC(N)=O)NC(=O)[C@H](Cc2ccc(O)cc2)NC(=O)[C@H](Cc2ccc(Cl)cc2)NC(=O)[C@H](Cc2ccc(O)cc2)NC(=O)[C@H](CCCNC(=N)N)NC(=O)[C@H](Cc2ccccc2)NC(=O)C(C)(C)NC(=O)[C@H](CCCNC(=N)N)NC(=O)[C@H](CCCCN)NC(=O)[C@H](CCCNC(=N)N)NC1=O` [Compound 58] ({CH2CO}-F[His(π-Me)]TIRKR[Aib]FRY[Phe(4-Cl)]YCG-NH2; thioether N-14), the “MIC E. coli BW25113 WUXI::MIC” value against E. coli BW25113 was determined as 2. In the experiment with E. coli 25922 IMP, the “MIC E. coli 25922 IMP WUXI::MIC” value came to 0.25.

For the compound `CC[C@@H]1NC(=O)[C@H](Cc2ccccc2)NC(=O)CSC[C@@H](C(=O)NCC(N)=O)NC(=O)[C@H](Cc2cncn2C)NC(=O)[C@H](CCCNC(=N)N)NC(=O)[C@H](Cc2cnc[nH]2)NC(=O)[C@H](Cc2ccccc2)N(C)C(=O)[C@H](CCCNC(=N)N)NC(=O)[C@H](CO)NC(=O)CN(C)C(=O)[C@H](Cc2cnc[nH]2)NC(=O)[C@H](Cc2c[nH]c3ccccc23)NC1=O` (racemic) [Compound 11, rac-(3R,6S,9S,12S,15S,18S,21S,27S,30S, 33S,36S)-N-(2-amino-2-oxo-ethyl)-15,36-dibenzyl-33-ethyl-9,18-bis(3-guanidinopropyl)-21-(hydroxymethyl)-12,27-bis(1H-imidazol-5-ylmethyl)-30-(1H-indol-3-ylmethyl)-16,25-dimethyl-6-[(3-methylimidazol-4-yl)methyl]-5,8,11,14,17,20,23,26,29,32,35,38-dodecaoxo-1-thia-4,7,10,13,16,19,22,25,28,31,34,37-dodecazacyclononatriacontane-3-carboxamide], in the experiment with E. coli BW25113, the “MIC E. coli BW25113 WUXI::MIC” value was determined as 8. The “MIC E. coli 25922 IMP WUXI::MIC” value in the experiment with E. coli 25922 IMP is recorded as 1.9074E−06.

On to `CC[C@H](C)[C@@H]1NC(=O)[C@H]([C@@H](C)O)NC(=O)[C@H](Cc2cncn2C)NC(=O)[C@H](Cc2ccccc2)NC(=O)CSC[C@@H](C(=O)NCC(N)=O)NC(=O)[C@H](Cc2ccccc2)NC(=O)[C@H](Cc2c[nH]c3ccccc23)NC(=O)[C@H](Cc2ccc(O)cc2)NC(=O)[C@H](Cc2cncn2C)NC(=O)[C@H](Cc2ccccc2)NC(=O)C(C)(C)NC(=O)[C@H](CCCNC(=N)N)NC(=O)[C@H](CCCCN)NC(=O)[C@H](CCCNC(=N)N)NC1=O` [Compound 54, trifluoroacetic acid] ({CH2CO}-F[His(π-Me)]TIRKR[Aib]F[His(π-Me)]YWFCG-NH2; thioether N-14), for which the “MIC E. coli BW25113 WUXI::MIC” value against E. coli BW25113 worked out at 8. In the experiment with E. coli 25922 IMP, the “MIC E. coli 25922 IMP WUXI::MIC” value was 0.5.

For the origin of these results see patent US20240279283A1, “CYCLIC PEPTIDE ANTIBIOTICS” (priority 2021, published 2024).
